Results from US20230113037A1 (Bayer Aktiengesellschaft, priority 2019, published 2023).
Values joined by “and” are separate entries in the source; they are usually repeats but may differ in a detail not shown here. Identical values can stand only once. Like-named read-outs stand apart in the source and are kept apart here.

Legend:
AHR [1] = target: T1, AHR (Mus musculus, UniProt P30561); assay: In vitro assay 3: antagonism in mouse cell line (AHR transactivation, firefly luciferase reporter, kynurenic acid prestimulated); assay type: cell-based
T1 sequence (P30561 1-848 P471L/N533S/M589L): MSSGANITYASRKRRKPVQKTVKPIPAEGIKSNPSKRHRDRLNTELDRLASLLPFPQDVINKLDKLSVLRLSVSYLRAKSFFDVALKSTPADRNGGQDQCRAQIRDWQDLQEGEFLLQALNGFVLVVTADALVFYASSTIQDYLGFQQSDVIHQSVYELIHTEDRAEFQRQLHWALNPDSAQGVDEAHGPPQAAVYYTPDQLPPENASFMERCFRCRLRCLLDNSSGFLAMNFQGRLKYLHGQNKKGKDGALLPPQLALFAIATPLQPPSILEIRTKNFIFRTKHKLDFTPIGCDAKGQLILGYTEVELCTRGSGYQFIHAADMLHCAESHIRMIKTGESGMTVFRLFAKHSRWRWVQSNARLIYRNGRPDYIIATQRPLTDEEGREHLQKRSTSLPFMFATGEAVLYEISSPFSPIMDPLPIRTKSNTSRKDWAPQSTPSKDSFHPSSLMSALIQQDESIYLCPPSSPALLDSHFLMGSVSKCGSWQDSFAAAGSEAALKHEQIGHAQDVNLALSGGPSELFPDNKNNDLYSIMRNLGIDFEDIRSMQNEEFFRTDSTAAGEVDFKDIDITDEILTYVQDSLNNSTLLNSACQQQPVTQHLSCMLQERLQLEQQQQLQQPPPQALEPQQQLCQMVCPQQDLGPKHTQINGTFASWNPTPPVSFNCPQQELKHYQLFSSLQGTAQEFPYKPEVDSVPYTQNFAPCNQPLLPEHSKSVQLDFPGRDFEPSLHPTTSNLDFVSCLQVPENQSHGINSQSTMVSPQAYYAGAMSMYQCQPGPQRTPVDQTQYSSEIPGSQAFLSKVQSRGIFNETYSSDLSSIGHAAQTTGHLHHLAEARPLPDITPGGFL
In short: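 Cells were first stimulated with kynurenic acid, then exposed to test compound, after which firefly luciferase from a DRE-containing AHR reporter was read out. Signal was scaled between positive and negative controls. Cells not given kynurenic acid provided the inhibition reference.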

AHR [2] = target: T2, AHR (Homo sapiens, UniProt P35869); assay: In vitro assay 1: antagonism in human cell line (AHR transactivation, firefly luciferase reporter, kynurenic acid prestimulated); assay type: cell-based; conditions: AHR Antagonism Human IC50 [M]
T2 construct: U87 MG glioblastoma cells (ATCC #HTB-14) endogenously expressing AHR; endogenous in cells; host or cells: U87 MG glioblastoma cells (ATCC #HTB-14)
T2 sequence (P35869 11-848): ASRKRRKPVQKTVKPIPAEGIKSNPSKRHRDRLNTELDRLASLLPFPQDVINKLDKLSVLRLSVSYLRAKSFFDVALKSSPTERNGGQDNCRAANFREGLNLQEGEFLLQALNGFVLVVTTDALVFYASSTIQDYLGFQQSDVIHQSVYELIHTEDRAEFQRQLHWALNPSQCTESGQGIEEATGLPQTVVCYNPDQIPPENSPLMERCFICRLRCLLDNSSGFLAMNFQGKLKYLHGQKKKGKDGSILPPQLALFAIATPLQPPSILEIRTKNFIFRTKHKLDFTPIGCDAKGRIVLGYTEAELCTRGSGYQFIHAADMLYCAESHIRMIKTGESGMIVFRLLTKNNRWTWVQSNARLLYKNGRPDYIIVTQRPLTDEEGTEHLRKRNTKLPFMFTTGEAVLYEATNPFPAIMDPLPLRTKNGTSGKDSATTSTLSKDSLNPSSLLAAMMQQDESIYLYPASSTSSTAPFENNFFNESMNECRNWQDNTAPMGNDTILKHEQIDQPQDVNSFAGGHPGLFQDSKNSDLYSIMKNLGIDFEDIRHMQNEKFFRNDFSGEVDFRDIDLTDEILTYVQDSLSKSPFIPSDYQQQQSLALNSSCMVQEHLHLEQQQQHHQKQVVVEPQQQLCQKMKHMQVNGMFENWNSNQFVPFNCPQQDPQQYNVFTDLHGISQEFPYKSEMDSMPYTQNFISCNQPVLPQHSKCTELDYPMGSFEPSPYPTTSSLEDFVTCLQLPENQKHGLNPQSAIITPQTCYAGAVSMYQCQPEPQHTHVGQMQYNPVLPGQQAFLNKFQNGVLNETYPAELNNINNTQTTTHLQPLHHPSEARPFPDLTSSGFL
In short: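 U87 MG glioblastoma cells with endogenous AHR, stably carrying a DRE-driven firefly luciferase reporter and constitutive Renilla reporter, prestimulated with kynurenic acid before compound addition. Firefly and Renilla read by dual luciferase; Renilla flags toxicity; normalized to controls (150 μM kynurenic acid + 5 μM staurosporine as full inhibition); repeat values averaged or median.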

[3] = mouse Hepa 1c1c7 cells, 200 μM kynurenic acid, 20 hours, read-out: AHR Antagonism Mouse IC50
[4] = Hepa 1c1c7 cells, 200 μM kynurenic acid, 20 hours, firefly luciferase reporter, read-out: AHR Antagonism Mouse IC50

SMILES	IC50 (AHR [1]; read-out: AHR Antagonism Mouse IC50, mouse Hepa 1c1c7 cells, 200 μM kynurenic acid, 20 hours) [nM]	IC50 (AHR [2]) [M]	IC50 (AHR [1]; [3]) [nM]	IC50 (AHR [1]; [4])	IC50 (AHR [2]; firefly luciferase reporter) [M]
O=C1NCCCC[C@H]1Nc1nc2ccccc2c2nc(-c3cc(C(F)(F)F)ccn3)nn12 [Example 363, (3R)-3-({2-[4-(trifluoromethyl)pyridin-2-yl][1,2,4]triazolo[1,5-c]quinazolin-5-yl}amino)azepan-2-one]	10.7	3.5e-08	–	–	–
O=C1NCCCC[C@H]1Nc1nc2ccccc2c2nc(-c3ccncc3F)nn12 [Example 369, (3R)-3-{[2-(3-fluoropyridin-4-yl)[1,2,4]triazolo[1,5-c]quinazolin-5-yl]amino}azepan-2-one]	–	1.64e-08	9.97	–	–
O=C1NCCCC[C@H]1Nc1nc2ccccc2c2nc(-c3cc(Br)ccc3OC(F)(F)F)nn12 [Example 505, (3R)-3-({2-[5-bromo-2-(trifluoromethoxy)phenyl][1,2,4]triazolo[1,5-c]quinazolin-5-yl}amino)azepan-2-one]	–	> 2e-05	50.7	–	–
COc1ccc(-c2nc3c4cccc(Br)c4nc(N[C@H](C)C(=O)N4CCOCC4)n3n2)cc1 [Example 773, (2R)-2-{[7-bromo-2-(4-methoxyphenyl)[1,2,4]triazolo[1,5-c]quinazolin-5-yl]amino}-1-(morpholin-4-yl)propan-1-one]	–	8.57e-10	0.995	–	–
CCCNC(=O)[C@@H](C)Nc1nc2ccccc2c2nc(-c3ccc(S(C)(=O)=O)cc3)nn12 [Example 439, N^2-{2-[4-(methanesulfonyl)phenyl][1,2,4]triazolo[1,5-c]quinazolin-5-yl}-N-propyl-D-alaninamide]	–	4.52e-08	27	–	–
Cc1nn(C)cc1-c1nc2c3cccc(Br)c3nc(N[C@@H]3CCCCNC3=O)n2n1 [Example 815, (3R)-3-{[7-bromo-2-(1,3-dimethyl-1H-pyrazol-4-yl)[1,2,4]triazolo[1,5-c]quinazolin-5-yl]amino}azepan-2-one]	–	–	–	1.6 nM	2.78e-10
Cc1c(-c2nc3c4cccc(C(F)(F)F)c4nc(N[C@@H]4CCCCNC4=O)n3n2)cnn1C [Example 734, (3R)-3-{[2-(1,5-dimethyl-1H-pyrazol-4-yl)-7-(trifluoromethyl)[1,2,4]triazolo[1,5-c]quinazolin-5-yl]amino}azepan-2-one]	–	3.94e-09	8.92	–	–
COc1ccc(-c2nc3c4ccc(F)cc4nc(N[C@@H]4CNCCNC4=O)n3n2)cc1 [Example 276, (6R)-6-{[8-fluoro-2-(4-methoxyphenyl)[1,2,4]triazolo[1,5-c]quinazolin-5-yl]amino}-1,4-diazepan-5-one]	–	1.45e-08	16.4	–	–
CCn1cc(-c2nc3c4cccc(OC)c4nc(N[C@@H]4CCCCNC4=O)n3n2)cn1 [Example 754, (3R)-3-{[2-(1-ethyl-1H-pyrazol-4-yl)-7-methoxy[1,2,4]triazolo[1,5-c]quinazolin-5-yl]amino}azepan-2-one]	–	7.97e-08	292	–	–
COc1cccc(-c2nc3c4ccccc4nc(N[C@@H](C(N)=O)[C@H](C)OCc4ccccc4)n3n2)c1 [Example 97, O-benzyl-N^2-[2-(3-methoxyphenyl)[1,2,4]triazolo[1,5-c]quinazolin-5-yl]-D-threoninamide]	–	1.56e-07	84.1	–	–
O=C1NCCCC[C@@H]1Nc1nc2ccccc2c2nc(-c3ccc(Cl)cc3OC(F)(F)F)nn12 [Example 518, (3S)-3-({2-[4-chloro-2-(trifluoromethoxy)phenyl][1,2,4]triazolo[1,5-c]quinazolin-5-yl}amino)azepan-2-one]	–	4.5e-08	7.94	–	–
COc1ccc(-c2nc3c4ccccc4nc(N[C@@H]4CCCCNC4=O)n3n2)c(F)c1 [Example 631, (3R)-3-{[2-(2-fluoro-4-methoxyphenyl)[1,2,4]triazolo[1,5-c]quinazolin-5-yl]amino}azepan-2-one]	–	1e-09	3.53	–	–
COc1cccc2c1nc(N[C@@H]1CCCCNC1=O)n1nc(-c3cn(C)nn3)nc21 [Example 756, (3R)-3-{[7-methoxy-2-(1-methyl-1H-1,2,3-triazol-4-yl)[1,2,4]triazolo[1,5-c]quinazolin-5-yl]amino}azepan-2-one]	–	4.49e-06	11700	–	–
Cn1cc(-c2nc3c4ccccc4nc(NC4CCNC4=O)n3n2)cn1 (single isomer, unassigned) [Example 18, 3-{[2-(1-methyl-1H-pyrazol-4-yl)[1,2,4]triazolo[1,5-c]quinazolin-5-yl]amino}pyrrolidin-2-one]	–	1.11e-06	2220	–	–
O=C1NCCCC[C@H]1Nc1nc2c(C(F)(F)F)cccc2c2nc(-c3cn[nH]c3)nn12 [Example 677, (3R)-3-{[2-(1H-pyrazol-4-yl)-7-(trifluoromethyl)[1,2,4]triazolo[1,5-c]quinazolin-5-yl]amino}azepan-2-one]	–	1.33e-08	53.1	–	–
COc1ccc(-c2nc3c4cccc(Br)c4nc(N[C@@H]4CCCCNC4=O)n3n2)c(C(F)(F)F)c1 [Example 569, (3R)-3-({7-bromo-2-[4-methoxy-2-(trifluoromethyl)phenyl][1,2,4]triazolo[1,5-c]quinazolin-5-yl}amino)azepan-2-one]	–	8.4e-09	4.3	–	–
COc1cccc(-c2nc3c4ccc(F)cc4nc(N[C@@H]4CCCCNC4=O)n3n2)c1 [Example 148, (3R)-3-{[8-fluoro-2-(3-methoxyphenyl)[1,2,4]triazolo[1,5-c]quinazolin-5-yl]amino}azepan-2-one]	–	8.12e-07	2.41	–	–
CC[C@@H](Nc1nc2ccccc2c2nc(-c3cccnc3C(F)(F)F)nn12)C(N)=O [Example 489, (2R)-2-({2-[2-(trifluoromethyl)pyridin-3-yl][1,2,4]triazolo[1,5-c]quinazolin-5-yl}amino)butanamide]	–	4.24e-07	43.3	–	–
COc1ccccc1-c1nc2c3ccccc3nc(N[C@H]3CCCCNC3=O)n2n1 [Example 60, (3S)-3-{[2-(2-methoxyphenyl)[1,2,4]triazolo[1,5-c]quinazolin-5-yl]amino}azepan-2-one]	–	> 2e-05	131	–	–
COc1ccc(-c2nc3c4ccccc4nc(N[C@@H]4CCCCNC4=O)n3n2)c(OC(F)(F)F)c1 [Example 508, (3R)-3-({2-[4-methoxy-2-(trifluoromethoxy)phenyl][1,2,4]triazolo[1,5-c]quinazolin-5-yl}amino)azepan-2-one]	–	3.53e-09	4.21	–	–
Cn1cc(-c2nc3c4cccc(Br)c4nc(N[C@H]4CS(=N)(=O)CCNC4=O)n3n2)cn1 (single isomer, unassigned) [Example 856]	–	–	–	19600 nM and > 20000 nM	> 2e-05
O=C1NCCCC[C@H]1Nc1nc2ccccc2c2nc(-c3ccc(Br)cc3OC(F)(F)F)nn12 [Example 440, (3R)-3-({2-[4-bromo-2-(trifluoromethoxy)phenyl][1,2,4]triazolo[1,5-c]quinazolin-5-yl}amino)azepan-2-one]	–	2.43e-09	0.642	–	–
